# Data reported in US8299129B2, “Peptide lipid-containing carrier and method for introducing compound into cells using same” (Fukuoka Prefectural Government, priority 2006, dated 2012).
# Experiments:
# Balb/c mouse [1] = experiment: Introduction of Cy3-labeled siRNA into mouse tissues using peptide lipid, fluorescence microscopy of removed tissues; assay type: in vivo; settings: tail vein injection, Cy3-labeled siRNA complex, 4 hours
# Method: (§1) Cy3-labeled siRNA ([…], purchased from Dharmacon) was mixed with 200 μl of 150 mM NaCl solution, 1.3 mM peptide lipid (RE-C12) (16 μl) was mixed with the above-mentioned siRNA solution and the mixture was incubated for 5 min to give peptide lipid—RNA complex. This was injected to Balb/c mouse (15-week-old) from the tail vein. […] Four hours later, the mouse was autopsied and each tissue (heart, lung, liver, kidney, spleen) was removed, which was cut into small pieces and observed with a fluorescence microscope. When peptide lipid was used as a carrier, siRNA could be introduced into each tissue in the body.
# Balb/c mouse [2] = experiment: Acute toxicity in mouse after tail vein injection of peptide lipid-RNA complex; assay type: in vivo; settings: at the concentration tested
# Method: as §1
substance,measurement,setting,value
Arg-Glu-C12 [RE-C12],Introduction efficiency into the liver and spleen,Balb/c mouse [1],particularly superior
same,"evaluation (introduction of siRNA), heart",Balb/c mouse [1]; heart,5%
same,"evaluation (introduction of siRNA), kidney",Balb/c mouse [1]; kidney,5%
same,"evaluation (introduction of siRNA), liver",Balb/c mouse [1]; liver,25%
same,"evaluation (introduction of siRNA), lung",Balb/c mouse [1]; lung,10%
same,"evaluation (introduction of siRNA), spleen",Balb/c mouse [1]; spleen,30%
same,acute toxicity,Balb/c mouse [2],acute toxicity was not observed
